Data from ChEMBL document CHEMBL4043066, “Drug Discovery Targeting Bromodomain-Containing Protein 4” (J Med Chem, 2017).

Columns and labels:
MV4-11 [1] = experiment: Antiproliferative activity against human MV4-11 cells; format: functional, cell-based
MV4-11 [2] = experiment: Antiproliferative activity against human MV4-11 cells after 72 hrs by alamarBlue assay; format: functional, cell-based; settings: MV4-11, 72 h
[3] = target: T1, Bromodomain-containing protein 4 (Homo sapiens, UniProt O60885); experiment: Inhibition of GST-tagged BRD4 bromodomain 1 (44 to 168 residues) (unknown origin) using biotinylated acetyl-histone H4 peptide as substrate after 30 mins in dark by AlphaScreen assay
[4] = target: T1, Bromodomain-containing protein 4; experiment: Inhibition of GST-tagged BRD4 (unknown origin) using biotinylated acetyl-histone H4 peptide as substrate after 30 mins by AlphaScreen assay
[5] = target: T1, Bromodomain-containing protein 4; experiment: Inhibition of His-epitope tagged BRD4 bromodomain 1 (44 to 168 residues) (unknown origin) using biotinylated histone H4 as substrate after 1 hr by AlphaScreen assay
[6] = target: T1, Bromodomain-containing protein 4; experiment: Inhibition of His-epitope tagged BRD4 bromodomain 2 (333 to 460 residues) (unknown origin) using biotinylated histone H4 as substrate after 1 hr by AlphaScreen assay
[7] = target: T1, Bromodomain-containing protein 4; experiment: Inhibition of BRD4 bromodomain 1 (unknown origin) using biotinylated substrate after 1 hr by AlphaLisa assay
[8] = Antitumor activity against human JJN3R cells xenografted subcutaneously in mouse assessed as tumor growth inhibition at 1 mg/kg, po relative to control; format: functional; settings: JJN-3R, read-out: TGI
[9] = target: T1, Bromodomain-containing protein 4; experiment: Inhibition of recombinant human N-terminal His6-tagged BRD4 bromodomain 1 expressed in Escherichia coli BL21(DE3) using biotinylated histone peptide as substrate after 60 mins by TR-FRET assay
[10] = target: T1, Bromodomain-containing protein 4; experiment: Inhibition of biotin-labeled acetylated peptide binding to BRD4 bromodomain 1 (unknown origin) expressed in Escherichia coli BL21 after 1 hr by BROMOscan assay
MX1 [11] = experiment: Antiproliferative activity against human MX1 cells incubated for >= 72 hrs by CellTiter-Glo assay; format: functional, cell-based; settings: MX1, 72 h
MT4 = experiment: Antiproliferative activity against human MT4 cells after 5 days by CellTiter-Glo assay; format: functional; settings: MT4, 120 h
[12] = Metabolic stability in CD1 mouse liver microsomes assessed as compound remaining at 1 uM after 30 mins in presence of NADPH by LC/MS analysis; format: ADME, microsome; settings: read-out: Stability
[13] = Metabolic stability in human liver microsomes assessed as compound remaining at 1 uM after 30 mins in presence of NADPH by LC/MS analysis; format: ADME, microsome; settings: read-out: Stability
MV4-11 [14] = experiment: Growth inhibition of human MV4-11 cells after 4 days by CellTiter-Glo assay; format: functional; settings: MV4-11, 96 h
MX1 [15] = experiment: Antiproliferative activity against human MX1 cells after 72 hrs by CellTiter-Glo assay; format: functional, cell-based; settings: MX1, 72 h
MV4-11 [16] = experiment: Antiproliferative activity against human MV4-11 cells after 4 days by CellTiter-Glo assay; format: functional, cell-based; settings: MV4-11, 96 h

Cc1noc(C)c1-c1ccc2c(c1)C(O)(c1ccccc1)C(=O)N2 (stereo not given)
IC50 (MV4-11 [1]): 58 nM

CCNC(=O)CC1N=C(C2CCCCC2)c2cc(OC)ccc2-c2cn(C)c(=O)cc21 (stereo not given)
EC50 (MV4-11 [2]): 8 nM

Cc1cc(-c2nc3ccc(N4CCOC[C@@H]4C)cc3n2[C@@H](C)c2ccccc2)cn(C)c1=O
IC50 [3]: 12 nM

Cc1sc2c(c1C)C(c1ccc(Cl)cc1)=N[C@@H](CC(=O)OC(C)(C)C)c1nnc(C)n1-2
IC50 (MV4-11 [1]): 72 nM

Cc1noc(C)c1-c1ccc2c(c1)[C@H](c1ccccc1)N(C)C2=O
IC50 [4]: 14 nM

CC(=O)N1c2ccc(-c3cnn([C@H]4CCNC[C@H]4F)c3)c(OCC3CCC3)c2CC[C@H]1C
IC50 [5]: < 100 nM | IC50 [6]: < 50 nM

CCNC(=O)CC1N=C(c2c(F)cccc2F)c2cc(OC)ccc2-c2cn(C)c(=O)cc21 (stereo not given)
IC50 [7]: < 0.5 nM | EC50 (MV4-11 [2]): 13 nM

Cc1noc(C)c1-c1ccc2c(c1)C(c1ccccc1)N(CC1CCN(C)CC1)C(=O)N2 (stereo not given)
IC50 [4]: 31 nM

CNC(=O)N1N=C(c2ccc(N3CC4(CCS4(=O)=O)C3)cc2)c2cc(-n3nc(C)cc3C)ccc2C[C@@H]1C
IC50 (MV4-11 [2]): 80 nM

[2H]C([2H])([2H])c1nnn(C)c1-c1cnc2c3ccc(C(C)(C)O)cc3n([C@H](c3ccccc3)C3CCC(F)(F)CC3)c2c1
inhibition in vivo at 1 mg/kg [8]: 93% | IC50 [9]: < 5 nM

Cc1sc2c(c1C)C(c1ccc(Cl)cc1)=N[C@@H](CC(=O)OCCCCCCO)c1nnc(C)n1-2
Kd [10]: 0.43 nM

COc1ccc(S(=O)(=O)Nc2cccc(Oc3ccc(S(C)(=O)=O)cc3-c3cn(C)c(=O)c4[nH]ccc34)c2)cc1
EC50 (MX1 [11]): 97 nM

Cc1noc(C)c1-c1cc(-c2c(C3CC3)n[nH]c2C2CC2)c2[nH]c(=O)[nH]c2c1
CC50 (MT4): 9.1 nM

CC(=O)N1c2ccc(-c3cnn(C4CC4)c3)cc2C(OC[C@H]2CC2(F)F)C[C@H]1C (stereo not given in full)
IC50 [5]: < 100 nM | IC50 [6]: < 50 nM

COc1cc2c(cc1-c1c(C)noc1C)ncc1nc(C3CCOCC3)n([C@H](C)COC(F)F)c12
remaining at 0.5 h, 1 µM [12]: 56% | remaining at 0.5 h, 1 µM [13]: 43%

Cc1nnc2c(NC(C)C)nc(-c3nc4cnc(N5CCOC[C@H]5C)cc4n3C(C)CC3CC3)cn12 (stereo not given in full)
IC50 [3]: 9 nM

CNC(=O)N1N=C(c2ccc(N3CC4(CCS4(=O)=O)C3)cc2)c2cc(OC(F)(F)F)ccc2C[C@@H]1C
IC50 (MV4-11 [2]): 30 nM

Cc1noc(C)c1-c1cc(C(O)(c2cnccn2)c2c(F)cccc2F)c2[nH]c(=O)[nH]c2c1 (stereo not given)
CC50 (MT4): 9.7 nM

COc1cc2c(cc1-c1c(C)noc1C)ncc1nc(CN3CCOCC3)n([C@H](C)COC(F)F)c12
remaining at 0.5 h, 1 µM [12]: 3.7% | remaining at 0.5 h, 1 µM [13]: 1.9%

CNC(=O)N1N=C(c2ccc(N3C[C@H]4CC[C@@H](C3)O4)cc2)c2cc(OC)c(OC)cc2C[C@@H]1C
IC50 (MV4-11 [2]): 30 nM

Cc1cc(N2C(=O)c3c(C4CC4)cn(C4COC4)c3C2c2ccc(Cl)cc2)cn2c(C)nnc12 (stereo not given)
GI50 (MV4-11 [14]): 2.9 nM

Cc1noc(C)c1-c1ccc2c(c1)C(c1ccccc1)N1CCCOC21 (stereo not given)
IC50 [4]: 36 nM

Cc1[nH]c(-c2ccccc2NC2CCCCC2F)cc1C(N)=O (stereo not given)
EC50 (MX1 [11]): 433 nM

Cc1sc2c(c1C)C(c1ccc(Cl)cc1)=N[C@H](CC(=O)OC1CCC(O)CC1)c1nnc(C)n1-2 (stereo not given in full)
Kd [10]: 1.3 nM

CCOc1cc(=O)n(C)cc1-c1cc(N(CC2CC2)S(=O)(=O)CC)ccc1Oc1ccc(F)cc1F
EC50 (MX1 [15]): 233 nM

CCS(=O)(=O)Nc1cc(-c2cn(C)c(=O)c3[nH]ccc23)c(Oc2ccc(F)cc2F)cc1CN1CCOCC1
EC50 (MX1 [11]): 16 nM

CCn1nc(C)c2c1C(=O)N(c1cc(C)c(=O)n(C)c1)C2c1ccc(Cl)cc1F (stereo not given)
IC50 (MV4-11 [16]): 7.7 nM

COC[C@@H](C)n1c(-c2cn3c(C)nnc3c(NC(C)C)n2)nc2cc3c(cc21)N(C(C)C)S(=O)(=O)C3(C)C
IC50 [3]: 17 nM

Cc1noc(C)c1-c1ccc2c(c1)C(c1ccccc1)N(C)C(=O)N2 (stereo not given)
IC50 [4]: 27 nM

Cc1noc(C)c1-c1ccc2c(c1)C(c1ccsc1)(N1CCC[C@H](N)C1)C(=O)N2 (stereo not given in full)
IC50 (MV4-11 [1]): 34 nM

[2H]C([2H])([2H])c1nnn(C)c1-c1cnc2c3ccc(C(C)(C)O)c(F)c3n([C@H](c3ccccc3)C3CCOCC3)c2c1
inhibition in vivo at 1 mg/kg [8]: 103% | IC50 [9]: < 5 nM

COc1cc2c(cc1-c1c(C)noc1C)ncc1nc(C3CCC(F)(F)CC3)n([C@H](C)COC(F)F)c12
remaining at 0.5 h, 1 µM [12]: 35% | remaining at 0.5 h, 1 µM [13]: 62%
